Measured values: patent US8450333B2, “Molecules for regulating cell death” (The Regents of The University of California, priority 2003, dated 2013)

tested on: wild type yeast cells; test: Mitochondrial morphology in yeast (secondary screen, mitochondrial targeted GFP); assay type: cell-based, S. cerevisiae; conditions: Structure Function Analysis of Compound A1, yeast
Text: Secondary screens: Compounds identified in the primary growth assay-based screens outlined above are screened secondarily by examining their effects on mitochondrial morphology. We use the steady state structure of mitochondria as an indicator of the relative rates of mitochondrial fission and fusion in cells. […] Mitochondria are visualized using a mitochondrial targeted GFP that is efficiently targeted to both wild type and respiratory deficient mitochondria (Tieu et al., 2000 The Journal of Cell Biology 151, 353-365.).
All compounds identified in the primary growth assay-based screens outlined above were screened secondarily by examining their effects on mitochondrial morphology in yeast. From previous work, we know that the steady state structure of mitochondria is an indicator of the relative rates of mitochondrial fission and fusion in cells (FIG. 7). Specifically, net-like structures indicate a block in fission, and fragmented mitochondrial structures indicate a block in fusion. […] In this secondary assay, small molecules were judged to be a hit if they produced a mutant phenotype in greater than 5% of the cell population.
To determine what structural features are important for the effects of mfisi-1 on mitochondrial fission, we identified structurally related molecules using a chemoinformatics approach. We utilized web-based ChemNavigator to search available public and commercial compound databases for small molecules that uniquely represented key structural features of mfisi-1. We tested a total of 15 small molecules related to mfisi-1 for their effects on mitochondrial morphology in yeast, each at a concentration of 50 μM (Table 3).

Question: Which “% fragmented” value does the source give for `O=c1c2ccccc2nc(S)n1Cc1ccccc1` here?
Answer: 6%

Question: And the “% nets” value?
Answer: 5%

Question: What about the “% reticular” value of the same compound?
Answer: 89%

Question: How did the “% fragmented” value turn out when `Cc1ccccc1-n1c(S)nc2ccccc2c1=O` [drawing 8] was run?
Answer: 8%

Question: What about the “% nets” value of the same compound?
Answer: 29%

Question: What about the “% reticular” value of the same compound?
Answer: 63%

Question: With `COc1cc(-n2c(SC)nc3ccccc3c2=O)c(Cl)cc1Cl` [drawing 9] as the compound, how does the “% fragmented” value read?
Answer: 11%

Question: What about the “% nets” value of the same compound?
Answer: 7%

Question: And the “% reticular” value?
Answer: 82%

Question: `O=C(O)CSc1nc2ccccc2c(=O)n1-c1ccccc1` [drawing 11] was tested. Which “% fragmented” value did it give?
Answer: 8%

Question: And the “% nets” value?
Answer: 5%

Question: What about the “% reticular” value of the same compound?
Answer: 87%

Question: Which results are given for `CCSc1nc2ccccc2c(=O)n1-c1cccc(C)c1` [drawing 12]?
Answer: % fragmented: 51%; % nets: 1%; % reticular: 48%

Question: For `C=CCSc1nc2ccccc2c(=O)n1-c1cccc(C)c1` [drawing 13], which “% fragmented” value is on record?
Answer: 8%

Question: What about the “% nets” value of the same compound?
Answer: 1%

Question: And the “% reticular” value?
Answer: 91%

Question: Which “% fragmented” value does the source give for `CSc1nc2ccccc2c(=O)n1-c1cccc(C)c1` [drawing 14] here?
Answer: 6%

Question: What about the “% nets” value of the same compound?
Answer: 0%

Question: And the “% reticular” value?
Answer: 94%

Question: With `Cc1cccc(-n2c(S)nc3ccccc3c2=O)c1` [drawing 15] as the compound, how does the “% fragmented” value read?
Answer: 0%

Question: What about the “% nets” value of the same compound?
Answer: 0%

Question: What about the “% reticular” value of the same compound?
Answer: 100%

Question: Which “% fragmented” value does the source give for `COc1ccccc1-n1c(S)nc2ccccc2c1=O` [drawing 16] here?
Answer: 32%

Question: And the “% nets” value?
Answer: 0%

Question: What about the “% reticular” value of the same compound?
Answer: 68%

Question: Which results are given for `C=CCSc1nc2ccccc2c(=O)n1Cc1ccccc1` [drawing 17]?
Answer: % fragmented: 69%; % nets: 0%; % reticular: 31%

Question: With `C=CCSc1nc2ccccc2c(=O)n1-c1ccccc1OC` [drawing 18] as the compound, how does the “% fragmented” value read?
Answer: 3.2%

Question: And the “% nets” value?
Answer: 0%

Question: And the “% reticular” value?
Answer: 96.8%

Question: For `O=c1c2ccccc2nc2n1CCS2` [drawing 19], which “% fragmented” value is on record?
Answer: 7.3%

Question: What about the “% nets” value of the same compound?
Answer: 0%

Question: What about the “% reticular” value of the same compound?
Answer: 92.7%

same assay, conditions: yeast, each at a concentration of 50 μM

Question: `O=c1c2ccccc2nc2n1CCS2` [2,3-Digydor-thiazolo[2,3-b]quinazolin-4-one] was tested. Which “% net-like structures” value did it give?
Answer: 0%

Question: With `C=CCSc1nc2ccccc2c(=O)n1Cc1ccccc1` [2-Allylsulfanyl-3-benzyl-3H-quinazolin-4-one] as the compound, how does the “% net-like structures” value read?
Answer: 0%

Question: Which “% net-like structures” value does the source give for `C=CCSc1nc2ccccc2c(=O)n1-c1cccc(C)c1` [2-Allylsulfanyl-3-m-tolyl-3H-quinazolin-4-one] here?
Answer: 1%

Question: Which “% net-like structures” value does the source give for `C=CCSc1nc2ccccc2c(=O)n1-c1ccccc1OC` [2-Allylsulfanyl-(2-methoxy-phenyl)-3H-quinazolin-4-one] here?
Answer: 0%

Question: For `CCSc1nc2ccccc2c(=O)n1-c1cccc(C)c1` [2-Ethylsulfanyl-3-m-tolyl-3H-quinazolin-4-one], which “% net-like structures” value is on record?
Answer: 2%

Question: How did the “% net-like structures” value turn out when `COc1ccccc1-n1c(S)nc2ccccc2c1=O` [2-Mercapto-3-(2-methoxy-phenyl)-3H-quinazolin-4-one] was run?
Answer: 0%

Question: For `Cc1cccc(-n2c(S)nc3ccccc3c2=O)c1` [2-Mercapto-3-m-tolyl-3H-quinazolin-4-one], which “% net-like structures” value is on record?
Answer: 0%

Question: With `Cc1ccccc1-n1c(S)nc2ccccc2c1=O` [2-Mercapto-3-o-tolyl-3H-quinazolin-4-one] as the compound, how does the “% net-like structures” value read?
Answer: 30%

Question: With `CSc1nc2ccccc2c(=O)n1-c1cccc(C)c1` [2-Methylsulfanyl-3-m-tolyl-3H-quinazolin-4-one] as the compound, how does the “% net-like structures” value read?
Answer: 0%

Question: How did the “% net-like structures” value turn out when `CSc1nc2ccccc2c(=O)n1Cc1ccccc1` [3-Benzyl-2-methylsulfanyl-3H-quinazolin-4-one] was run?
Answer: 5%

Question: For `O=C(O)CSc1nc2ccccc2c(=O)n1-c1ccccc1` [(4-oxo-3-phenyl-3,4-dihydro-quinazolin-2-ylsulfanyl)-acetic acid], which “% net-like structures” value is on record?
Answer: 5%

Question: How did the “% net-like structures” value turn out when `COc1cc(-n2c(SC)nc3cc(Cl)ccc3c2=O)c(Cl)cc1Cl` [mfisi-1.1, 7-chloro-3-(2,4-Dichloro-5-methoxy-phenyl)-2-methylsulfanyl-3H-quinazolin-4-one] was run?
Answer: 7%

Question: How did the “% net-like structures” value turn out when `COc1cc(-n2c(SC)nc3ccccc3c2=O)c(Cl)cc1Cl` [mfisi-1.2, 3-(2,4-Dichloro-5-methoxy-phenyl)-2-methylsulfanyl-3H-quinazolin-4-one] was run?
Answer: 7%

Question: `CSc1nc2cc(Cl)ccc2c(=O)n1-c1cc(OC(C)C)c(Cl)cc1Cl` [mfisi-1.3, 7-chloro-3-(2,4-Dichloro-5-isopropoxy-phenyl)-2-methylsulfanyl-3H-quinazolin-4-one] was tested. Which “% net-like structures” value did it give?
Answer: 2%

Question: For `COc1cc(-n2c(SC)nc3ccc(Cl)cc3c2=O)c(Cl)cc1Cl` [mfisi-1.4, 6-chloro-3-(2,4-Dichloro-5-methoxy-phenyl)-2-methylsulfanyl-3H-quinazolin-4-one], which “% net-like structures” value is on record?
Answer: 2%

tested on: mammalian COS cells; test: Mitochondrial fragmentation induced by staurosporine (STS) in COS cells; assay type: cell-based; conditions: COS cells stimulated with STS; mfisi-1 at 50 μM; n=100
Text: As indicated above, we observed that mfisi-1 causes changes in mitochondrial morphology in mammalian cells that are consistent with a block in mitochondrial fission. Thus, we examined the effects of mfisi-1 on mitochondrial fragmentation caused by the intrinsic apoptotic stimulus staurosporine (STS) in mammalian COS cells. […] These observations indicate that mfisi-1 retards apoptosis-stimulated Drp1-dependent mitochondrial fission.

Question: `CN[C@@H]1C[C@H]2O[C@@](C)([C@@H]1OC)n1c3ccccc3c3c4c(c5c6ccccc6n2c5c31)C(=O)NC4` [STS, staurosporine, reference compound] was tested. Which “% collapsed nets” value did it give?
Answer: 0%

Question: What about the “% fragmented” value of the same compound?
Answer: 86%

Question: What about the “% loose nets” value of the same compound?
Answer: 0%

Question: And the “% reticular” value?
Answer: 14%

tested on: actin cytoskeleton and peripheral ER network; test: Actin cytoskeleton and peripheral ER network in yeast; assay type: cell-based; conditions: added after mfisi-1 treatment
Text: These structures are routinely examined in yeast mitochondrial morphology mutants as a test for the specificity of the mitochondrial phenotype.

Question: Which results are given for `C/C1=C/C(=O)O[C@@H]2C[C@@H](CC[C@H](C)/C=C\C=C\CC1)O[C@@](O)([C@@H]1CSC(=O)N1)C2` [Latrunculin-A]?
Answer: effect on actin cables and patches: complete disruption of actin cables and patches; effect on mitochondrial nets: caused mitochondrial nets to collapse and aggregate
